Experimental findings from ChEMBL document CHEMBL1201862, “PubChem BioAssay data set” (2004) are described below.

SMILES strings stand for the structures. The source made the active and inactive calls.

The target in assay [1] is T1, Coagulation factor XII (Homo sapiens, UniProt P00748).
T1 sequence (P00748 whole entry): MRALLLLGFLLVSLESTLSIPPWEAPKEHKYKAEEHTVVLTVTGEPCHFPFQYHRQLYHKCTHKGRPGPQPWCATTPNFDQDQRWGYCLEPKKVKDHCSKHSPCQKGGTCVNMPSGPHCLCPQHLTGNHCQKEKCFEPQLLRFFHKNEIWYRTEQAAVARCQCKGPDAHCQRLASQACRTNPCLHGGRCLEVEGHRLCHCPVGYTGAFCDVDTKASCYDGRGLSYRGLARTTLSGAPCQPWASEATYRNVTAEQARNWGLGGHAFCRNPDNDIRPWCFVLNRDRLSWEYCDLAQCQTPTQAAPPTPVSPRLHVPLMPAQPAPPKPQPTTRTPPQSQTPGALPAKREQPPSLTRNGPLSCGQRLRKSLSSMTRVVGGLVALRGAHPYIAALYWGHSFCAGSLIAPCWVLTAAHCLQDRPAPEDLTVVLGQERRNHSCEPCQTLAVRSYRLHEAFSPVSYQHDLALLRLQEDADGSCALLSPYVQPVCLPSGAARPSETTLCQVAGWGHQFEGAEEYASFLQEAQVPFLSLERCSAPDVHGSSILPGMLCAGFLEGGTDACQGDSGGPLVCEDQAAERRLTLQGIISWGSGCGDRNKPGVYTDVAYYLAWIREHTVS
The experiment in a line: FXIIa inhibitor potency, concentration-response, biochemical (AID 716). Type of assay: functional.

Assay [2] addresses Hexokinase-1 (Homo sapiens, UniProt P19367). The assay can be described thus: hexokinase 1 activators, dose response, selectivity assay for HKDC1 activator project, biochemical (AID 504762). Type of assay: functional.
Assay [3] deals with T2, Hexokinase HKDC1 (Homo sapiens, UniProt Q2TB90).
T2 sequence (Q2TB90 whole entry): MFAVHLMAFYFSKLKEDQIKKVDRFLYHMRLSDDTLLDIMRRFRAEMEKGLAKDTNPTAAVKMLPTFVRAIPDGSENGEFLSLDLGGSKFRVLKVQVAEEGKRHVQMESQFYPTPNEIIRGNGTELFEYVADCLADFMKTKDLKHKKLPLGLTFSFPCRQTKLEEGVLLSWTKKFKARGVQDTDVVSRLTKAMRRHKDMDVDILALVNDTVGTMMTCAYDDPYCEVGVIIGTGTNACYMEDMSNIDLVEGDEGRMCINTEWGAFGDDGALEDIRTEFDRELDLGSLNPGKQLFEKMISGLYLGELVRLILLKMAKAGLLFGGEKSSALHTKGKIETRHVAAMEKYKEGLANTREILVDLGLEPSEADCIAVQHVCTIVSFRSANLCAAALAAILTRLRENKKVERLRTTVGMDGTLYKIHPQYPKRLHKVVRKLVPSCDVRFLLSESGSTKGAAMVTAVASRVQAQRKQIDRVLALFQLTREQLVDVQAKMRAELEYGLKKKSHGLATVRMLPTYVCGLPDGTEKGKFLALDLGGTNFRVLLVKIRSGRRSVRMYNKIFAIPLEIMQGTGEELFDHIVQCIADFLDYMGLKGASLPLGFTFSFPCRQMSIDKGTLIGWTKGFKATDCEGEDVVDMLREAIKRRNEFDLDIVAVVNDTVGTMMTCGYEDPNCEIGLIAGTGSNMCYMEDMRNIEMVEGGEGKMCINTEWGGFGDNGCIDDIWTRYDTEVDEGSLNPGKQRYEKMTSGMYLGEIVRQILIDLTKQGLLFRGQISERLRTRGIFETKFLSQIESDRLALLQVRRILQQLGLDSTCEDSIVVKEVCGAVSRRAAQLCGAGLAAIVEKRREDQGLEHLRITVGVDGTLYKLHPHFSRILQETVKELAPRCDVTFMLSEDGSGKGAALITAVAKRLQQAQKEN
The assay can be described thus: HKDC1 hexokinase activators, dose response, biochemical, W721R variant (AID 504730). Type of assay: functional.

Assay [4] concerns the target DNA damage-inducible transcript 3 protein (Mus musculus, UniProt P35639). The assay is classed as functional, Cricetulus griseus.
Assay [5] can be described thus: Luminescence Cell-Based Dose Retest to Confirm Inhibitors of Cancer Stem Cells. [Related pubchem assays (depositor defined):AID2717, AID2721]. Type of assay: functional. The conditions noted are these: Homo sapiens.
Assay [6] relates to T-cell. The experiment in a line: inhibitors of CD8+ T cell–vesicle binding, dose response, mouse 2C CD8+ T cells, flow cytometry (AID 485284). The assay is classed as functional. Background: Flow cytometry measures light scatter and fluorescence of single cells or particles in a stream.
Assay [7] concerns the target Hexokinase (Trypanosoma brucei, UniProt Q38C41). The experiment in a line: Confirmation assay for inhibitors of Trypanosoma brucei hexokinase 1-Analogue-first series. [Related pubchem assays (depositor defined):AID1430, AID1632, AID2516, AID2560, AID2579, AID2600, AID449725, AID492951]. Type of assay: functional.
In assay [8] the target is T3, Cannabinoid receptor 1 (Homo sapiens, UniProt P21554). The experiment in a line: SAR analysis of agonists of the Cannabinoid Receptor 1 using an Image-Based Assay - Set 4. [Related pubchem assays (depositor defined):AID2013, AID2026]. Type of assay: functional.
Assay [9] deals with T4, Cannabinoid receptor 2 (Homo sapiens, UniProt P34972). The assay can be described thus: SAR analysis of antagonists of the Cannabinoid Receptor 2 using an Image-Based Assay - Set 3. [Related pubchem assays (depositor defined):AID2013, AID2026]. The assay is classed as functional.
Assay [10] has as its target T3, Cannabinoid receptor 1. The experiment in a line: SAR analysis of antagonists of the Cannabinoid Receptor 1 using an Image-Based Assay - Set 4. [Related pubchem assays (depositor defined):AID2013, AID2026]. The assay is classed as functional.
Assay [11] addresses T5, G-protein coupled receptor 35 (Homo sapiens, UniProt Q9HC97). The assay can be described thus: SAR analysis of Agonists of the GPR35 Receptor using an Image-Based Assay - Set 4. [Related pubchem assays (depositor defined):AID2013, AID2026]. Type of assay: functional.
The target of assay [12] is T5, G-protein coupled receptor 35. The experiment in a line: SAR analysis of Antagonists of the GPR35 Receptor using an Image-Based Assay - Set 6. [Related pubchem assays (depositor defined):AID2013, AID2026]. The assay is classed as functional.
Assay [13] addresses T4, Cannabinoid receptor 2. The assay can be described thus: SAR analysis of agonists of the Cannabinoid Receptor 2 using an Image-Based Assay - Set 3. [Related pubchem assays (depositor defined):AID2013, AID2026]. The assay is classed as functional.
Assay [14] addresses G-protein coupled receptor 55 (Homo sapiens, UniProt Q9Y2T6). The assay can be described thus: SAR Analysis of Selective Antagonists of GPR55 using an Image-Based Assay - Set 4. [Related pubchem assays (depositor defined):AID2013, AID2026]. Type of assay: functional.
Assay [15] has as its target T6, Dual specificity protein phosphatase 6 (Rattus norvegicus, UniProt Q64346).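 Note: confirmatory in vitro dose-response testing of MKP-3 inhibition; recombinant His-tagged MKP-3 made in E. coli BL21 with OMFP substrate.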
T6 sequence (Q64346 whole entry): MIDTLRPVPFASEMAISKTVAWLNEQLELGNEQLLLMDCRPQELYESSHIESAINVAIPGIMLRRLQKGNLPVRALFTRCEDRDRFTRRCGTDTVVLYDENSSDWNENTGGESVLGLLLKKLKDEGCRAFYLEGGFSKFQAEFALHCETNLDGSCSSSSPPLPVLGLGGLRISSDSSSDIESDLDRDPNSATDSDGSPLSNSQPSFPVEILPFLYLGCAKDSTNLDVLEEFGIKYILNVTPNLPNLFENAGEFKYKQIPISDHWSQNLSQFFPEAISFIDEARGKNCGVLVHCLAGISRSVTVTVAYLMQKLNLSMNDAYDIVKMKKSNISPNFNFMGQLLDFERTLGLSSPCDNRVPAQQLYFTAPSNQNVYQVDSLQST
The assay is classed as functional.

The target in assay [16] is T7, Tyrosine-protein phosphatase non-receptor type 22 (Homo sapiens, UniProt Q9Y2R2).
T7 sequence (Q9Y2R2 whole entry): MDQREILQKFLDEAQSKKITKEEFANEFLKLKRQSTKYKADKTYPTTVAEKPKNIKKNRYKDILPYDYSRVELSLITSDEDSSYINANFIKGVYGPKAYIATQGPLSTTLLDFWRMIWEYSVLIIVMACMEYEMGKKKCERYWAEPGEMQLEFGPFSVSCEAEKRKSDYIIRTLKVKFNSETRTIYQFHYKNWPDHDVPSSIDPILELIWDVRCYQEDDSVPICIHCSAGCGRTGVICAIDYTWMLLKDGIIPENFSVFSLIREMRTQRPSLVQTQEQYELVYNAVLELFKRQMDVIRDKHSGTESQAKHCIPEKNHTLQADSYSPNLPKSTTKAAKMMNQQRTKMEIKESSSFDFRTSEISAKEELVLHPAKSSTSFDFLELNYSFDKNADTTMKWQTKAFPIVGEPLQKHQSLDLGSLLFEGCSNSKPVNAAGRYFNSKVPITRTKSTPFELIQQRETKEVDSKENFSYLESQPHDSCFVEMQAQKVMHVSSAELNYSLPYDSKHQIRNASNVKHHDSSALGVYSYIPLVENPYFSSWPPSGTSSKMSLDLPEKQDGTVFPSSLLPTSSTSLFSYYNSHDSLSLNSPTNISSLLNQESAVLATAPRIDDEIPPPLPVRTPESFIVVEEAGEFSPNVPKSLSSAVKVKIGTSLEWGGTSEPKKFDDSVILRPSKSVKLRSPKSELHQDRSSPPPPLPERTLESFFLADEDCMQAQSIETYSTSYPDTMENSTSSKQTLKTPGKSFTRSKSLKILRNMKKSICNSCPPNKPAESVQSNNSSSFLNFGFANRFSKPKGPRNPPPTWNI
The assay can be described thus: SAR LYP1 Fluorescent Assay using OMFP substrate for In Vitro dose response studies - Set 3. [Related pubchem assays (depositor defined):AID1779, AID1784, AID2140, AID2686]. Type of assay: functional.

Assay [17] deals with Tyrosine-protein phosphatase non-receptor type 12 (Homo sapiens, UniProt Q05209). The experiment in a line: SAR Selectivity Analysis of small molecule inhibitors of PEST using pCAP in a fluorescence assay. [Related pubchem assays (depositor defined):AID1779, AID1784, AID2135]. The assay is classed as functional.
In assay [18] the target is T8, Tyrosine-protein phosphatase non-receptor type 7 (Homo sapiens, UniProt P35236).
T8 sequence (P35236 whole entry): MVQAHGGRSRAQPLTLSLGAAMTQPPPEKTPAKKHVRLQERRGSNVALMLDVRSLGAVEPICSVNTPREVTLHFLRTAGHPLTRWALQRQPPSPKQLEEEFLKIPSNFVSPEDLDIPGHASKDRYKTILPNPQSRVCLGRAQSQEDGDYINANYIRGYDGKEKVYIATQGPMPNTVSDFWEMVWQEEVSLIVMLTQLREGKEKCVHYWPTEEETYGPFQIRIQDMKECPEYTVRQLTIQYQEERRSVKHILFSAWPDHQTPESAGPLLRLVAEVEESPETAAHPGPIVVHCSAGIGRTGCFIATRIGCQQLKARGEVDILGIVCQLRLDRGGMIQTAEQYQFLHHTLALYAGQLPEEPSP
The assay can be described thus: HePTP (PTPN7) phosphatase inhibitor potency, SAR follow-up, biochemical, set 2 (AID 449736). The assay is classed as functional.

In assay [19] the target is Dual specificity protein phosphatase 3 (Homo sapiens, UniProt P51452). The experiment in a line: SAR VHR1 Fluorescent Assay for In Vitro dose response studies Set 2. [Related pubchem assays (depositor defined):AID1654, AID1661, AID1878]. The assay is classed as functional.
For assay [20], the target named is T7, Tyrosine-protein phosphatase non-receptor type 22. The experiment in a line: LYP (PTPN22) phosphatase inhibitor potency, SAR follow-up, biochemical, pCAP fluorogenic substrate, fluorescence, set 3 (AID 449727). The assay is classed as functional.
Assay [21] deals with T8, Tyrosine-protein phosphatase non-receptor type 7. The experiment in a line: redox-dependent HePTP inhibition, mechanism study, biochemical, fluorescence (AID 2068). Type of assay: functional.
Assay [22] addresses DNA dC->dU-editing enzyme APOBEC-3G (Homo sapiens, UniProt Q9HC16). The assay is classed as functional.
Assay [23] has as its target DNA dC->dU-editing enzyme APOBEC-3A (Homo sapiens, UniProt P31941). The experiment in a line: Dose Response confirmation of small molecule APOBEC3A DNA Deaminase Inhibitors via a fluorescence-based single-stranded DNA deaminase assay. [Related pubchem assays (depositor defined):AID493011, AID493024]. The assay is classed as functional.
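Throughout, for AC50: cells exposed to compound for roughly 70 hours or longer before luminescence read.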

T5 sequence (Q9HC97 whole entry): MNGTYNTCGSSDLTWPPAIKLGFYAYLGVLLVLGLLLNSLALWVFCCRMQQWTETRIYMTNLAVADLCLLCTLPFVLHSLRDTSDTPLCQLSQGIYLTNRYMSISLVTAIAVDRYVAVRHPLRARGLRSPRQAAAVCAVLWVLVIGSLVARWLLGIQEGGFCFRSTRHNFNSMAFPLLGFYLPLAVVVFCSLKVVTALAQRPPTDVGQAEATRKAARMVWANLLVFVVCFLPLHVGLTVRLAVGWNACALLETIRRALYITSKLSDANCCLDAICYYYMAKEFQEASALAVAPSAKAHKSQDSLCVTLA
T4 sequence (P34972 whole entry): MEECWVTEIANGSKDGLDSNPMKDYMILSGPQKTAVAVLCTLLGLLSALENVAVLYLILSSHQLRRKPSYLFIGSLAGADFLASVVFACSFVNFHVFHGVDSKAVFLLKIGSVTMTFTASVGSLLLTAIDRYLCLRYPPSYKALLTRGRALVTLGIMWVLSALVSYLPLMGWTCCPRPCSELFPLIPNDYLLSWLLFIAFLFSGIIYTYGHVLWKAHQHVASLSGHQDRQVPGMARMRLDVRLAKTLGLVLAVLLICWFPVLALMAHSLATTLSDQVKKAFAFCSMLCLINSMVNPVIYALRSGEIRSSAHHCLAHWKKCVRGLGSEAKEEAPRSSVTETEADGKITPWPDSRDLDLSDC
T3 sequence (P21554 whole entry): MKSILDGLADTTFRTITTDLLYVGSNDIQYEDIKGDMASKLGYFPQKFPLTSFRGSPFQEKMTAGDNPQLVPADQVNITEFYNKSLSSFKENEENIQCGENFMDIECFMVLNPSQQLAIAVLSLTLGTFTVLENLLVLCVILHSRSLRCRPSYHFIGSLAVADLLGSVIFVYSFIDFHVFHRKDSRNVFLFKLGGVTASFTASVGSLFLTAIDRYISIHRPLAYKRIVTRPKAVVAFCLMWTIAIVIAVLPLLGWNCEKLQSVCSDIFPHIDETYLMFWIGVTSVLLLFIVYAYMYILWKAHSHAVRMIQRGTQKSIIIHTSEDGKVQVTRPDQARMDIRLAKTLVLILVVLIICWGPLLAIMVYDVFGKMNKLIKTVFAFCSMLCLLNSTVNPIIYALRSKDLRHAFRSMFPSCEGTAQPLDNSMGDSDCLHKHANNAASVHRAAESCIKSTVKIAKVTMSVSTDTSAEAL
Chain of Dual specificity protein phosphatase 3 (P51452 whole entry): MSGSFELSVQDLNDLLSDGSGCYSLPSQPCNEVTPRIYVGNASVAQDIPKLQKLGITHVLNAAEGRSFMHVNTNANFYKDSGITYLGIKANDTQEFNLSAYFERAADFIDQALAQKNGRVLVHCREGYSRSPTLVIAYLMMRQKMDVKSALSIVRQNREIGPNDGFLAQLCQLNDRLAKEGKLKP
Chain of DNA dC->dU-editing enzyme APOBEC-3G (Q9HC16 whole entry): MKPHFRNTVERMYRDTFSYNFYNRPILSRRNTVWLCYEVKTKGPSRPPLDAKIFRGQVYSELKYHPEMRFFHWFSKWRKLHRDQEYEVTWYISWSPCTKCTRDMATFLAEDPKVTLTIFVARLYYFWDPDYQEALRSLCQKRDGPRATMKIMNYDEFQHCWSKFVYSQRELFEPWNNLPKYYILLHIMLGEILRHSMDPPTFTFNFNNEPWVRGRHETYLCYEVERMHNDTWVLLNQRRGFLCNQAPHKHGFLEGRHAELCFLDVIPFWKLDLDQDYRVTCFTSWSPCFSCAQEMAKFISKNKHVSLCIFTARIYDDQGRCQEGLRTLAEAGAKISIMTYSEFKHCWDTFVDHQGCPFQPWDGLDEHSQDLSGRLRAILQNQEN
Chain of Hexokinase (Q38C41 whole entry): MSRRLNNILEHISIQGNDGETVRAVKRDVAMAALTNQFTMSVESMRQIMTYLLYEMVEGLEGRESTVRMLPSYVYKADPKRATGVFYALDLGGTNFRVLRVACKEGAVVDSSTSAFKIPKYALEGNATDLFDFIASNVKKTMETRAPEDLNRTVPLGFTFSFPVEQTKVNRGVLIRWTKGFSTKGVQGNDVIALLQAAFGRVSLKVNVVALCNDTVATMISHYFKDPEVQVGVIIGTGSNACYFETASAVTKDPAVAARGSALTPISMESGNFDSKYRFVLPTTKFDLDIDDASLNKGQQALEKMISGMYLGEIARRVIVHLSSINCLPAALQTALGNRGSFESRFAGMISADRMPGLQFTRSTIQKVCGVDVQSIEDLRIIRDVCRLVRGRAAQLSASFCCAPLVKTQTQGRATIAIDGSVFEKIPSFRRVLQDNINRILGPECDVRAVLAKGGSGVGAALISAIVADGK
Chain of DNA damage-inducible transcript 3 protein (P35639 whole entry): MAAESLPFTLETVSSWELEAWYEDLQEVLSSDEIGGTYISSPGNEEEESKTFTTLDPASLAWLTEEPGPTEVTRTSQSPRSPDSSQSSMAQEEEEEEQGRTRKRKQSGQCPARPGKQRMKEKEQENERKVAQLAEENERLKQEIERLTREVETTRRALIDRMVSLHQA
Chain of Hexokinase-1 (P19367 whole entry): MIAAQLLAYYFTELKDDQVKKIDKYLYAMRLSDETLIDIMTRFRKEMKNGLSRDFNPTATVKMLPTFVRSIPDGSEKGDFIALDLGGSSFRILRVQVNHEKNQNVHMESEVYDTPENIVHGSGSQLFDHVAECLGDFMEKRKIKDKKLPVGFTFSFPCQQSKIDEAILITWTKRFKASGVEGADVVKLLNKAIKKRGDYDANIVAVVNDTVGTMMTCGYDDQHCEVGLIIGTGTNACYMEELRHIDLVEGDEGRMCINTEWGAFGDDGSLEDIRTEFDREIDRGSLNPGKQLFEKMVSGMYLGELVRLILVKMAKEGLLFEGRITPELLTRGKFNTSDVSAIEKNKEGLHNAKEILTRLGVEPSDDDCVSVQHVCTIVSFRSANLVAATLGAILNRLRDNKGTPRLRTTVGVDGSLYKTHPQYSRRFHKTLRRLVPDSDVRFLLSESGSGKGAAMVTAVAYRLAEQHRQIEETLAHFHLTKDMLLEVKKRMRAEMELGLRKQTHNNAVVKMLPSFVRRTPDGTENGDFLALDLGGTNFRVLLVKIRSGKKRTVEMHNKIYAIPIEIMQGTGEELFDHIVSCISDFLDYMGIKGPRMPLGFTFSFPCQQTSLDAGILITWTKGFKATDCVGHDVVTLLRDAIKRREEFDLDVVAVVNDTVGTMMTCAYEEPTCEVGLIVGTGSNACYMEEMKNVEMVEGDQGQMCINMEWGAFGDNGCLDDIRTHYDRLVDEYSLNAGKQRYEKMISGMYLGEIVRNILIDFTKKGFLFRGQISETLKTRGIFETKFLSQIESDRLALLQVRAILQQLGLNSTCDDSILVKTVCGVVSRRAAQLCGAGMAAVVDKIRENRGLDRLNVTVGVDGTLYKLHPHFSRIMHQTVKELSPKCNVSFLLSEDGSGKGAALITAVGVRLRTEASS
Chain of DNA dC->dU-editing enzyme APOBEC-3A (P31941 whole entry): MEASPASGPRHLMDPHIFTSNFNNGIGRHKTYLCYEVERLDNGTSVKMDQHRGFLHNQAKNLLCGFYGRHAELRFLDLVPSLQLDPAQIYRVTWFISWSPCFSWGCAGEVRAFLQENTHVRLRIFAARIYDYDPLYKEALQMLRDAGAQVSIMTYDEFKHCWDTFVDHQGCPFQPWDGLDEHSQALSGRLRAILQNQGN
Chain of G-protein coupled receptor 55 (Q9Y2T6 whole entry): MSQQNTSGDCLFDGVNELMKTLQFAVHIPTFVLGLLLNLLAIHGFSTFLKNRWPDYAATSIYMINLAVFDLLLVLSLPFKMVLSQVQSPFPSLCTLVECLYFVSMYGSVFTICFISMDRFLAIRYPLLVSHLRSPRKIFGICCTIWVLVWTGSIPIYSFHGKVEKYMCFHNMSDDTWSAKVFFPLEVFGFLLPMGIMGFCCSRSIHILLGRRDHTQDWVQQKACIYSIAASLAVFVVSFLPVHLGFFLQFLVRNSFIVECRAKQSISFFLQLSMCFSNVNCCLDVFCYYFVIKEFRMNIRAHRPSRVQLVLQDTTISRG
Chain of Tyrosine-protein phosphatase non-receptor type 12 (Q05209 whole entry): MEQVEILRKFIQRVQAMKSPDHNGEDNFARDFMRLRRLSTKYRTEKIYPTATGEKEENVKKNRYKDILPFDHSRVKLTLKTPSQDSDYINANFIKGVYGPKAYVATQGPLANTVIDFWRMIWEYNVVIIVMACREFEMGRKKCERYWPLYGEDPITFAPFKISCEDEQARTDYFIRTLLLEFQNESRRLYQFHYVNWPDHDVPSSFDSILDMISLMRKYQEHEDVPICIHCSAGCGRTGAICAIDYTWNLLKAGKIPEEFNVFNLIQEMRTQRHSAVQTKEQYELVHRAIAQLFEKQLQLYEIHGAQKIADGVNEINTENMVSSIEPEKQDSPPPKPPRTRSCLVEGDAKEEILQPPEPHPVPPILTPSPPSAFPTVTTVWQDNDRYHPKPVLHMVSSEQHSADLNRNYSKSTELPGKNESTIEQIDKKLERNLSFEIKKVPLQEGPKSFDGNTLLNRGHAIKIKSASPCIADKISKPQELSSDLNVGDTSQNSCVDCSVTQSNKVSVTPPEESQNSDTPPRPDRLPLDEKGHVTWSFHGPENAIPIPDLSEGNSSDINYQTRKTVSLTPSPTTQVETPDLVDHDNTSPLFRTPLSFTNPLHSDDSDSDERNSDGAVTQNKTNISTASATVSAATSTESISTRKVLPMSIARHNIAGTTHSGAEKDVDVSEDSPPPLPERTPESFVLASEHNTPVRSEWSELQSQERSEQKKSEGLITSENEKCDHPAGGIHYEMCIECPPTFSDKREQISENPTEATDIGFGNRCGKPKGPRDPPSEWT

As usually defined, the IC50 is the concentration at which inhibition is half-maximal. In the case of `COc1ccccc1-n1c(S)nnc1CNC(=O)COc1ccccc1`, the IC50 in assay [1] was > 50 µM (inactive).

In general, EC50 refers to the concentration giving half of the maximal effect. Turning to `Cn1c(=O)c2c(nc(NN/C=C3/C(=O)NC(=S)N(C4CCCCC4)C3=O)n2C)n(C)c1=O`, the EC50 is 75.9 µM (inactive) in assay [2] and > 80 µM (inactive) in assay [3].

By AC50 is commonly meant the midpoint of the concentration-response curve, whichever way the signal moves. For the compound `NC(=O)CC(NC(=O)Cc1cccc2ccccc12)c1ccc(NCc2ccccc2)c([N+](=O)[O-])c1` (stereo not drawn), the “Absolute IC50 (CHOP)” value in assay [4] is 10 µM. In addition, in assay [5], the half-maximal activity concentration (AC50) was 5.5 µM (active).

For the compound `COc1ccc2c(c1)C1NC(S)=NC(C)(O2)C1C(=O)Nc1ccc(Cl)cc1` (stereo not drawn), in [6], the EC50 is 31.3 µM (inactive).

On to `CC(C)(C)c1ccc(C(=O)Nc2cc(Cl)c(Cl)cc2C(=O)O)cc1`, for which the IC50 in assay [7] is 1.36 µM (active).

`CCOc1ccc(CC(=O)N2CCC(n3nc(-c4ccccc4)oc3=O)CC2)cc1`: the EC50 in [8], in [11] and in [13] was > 32 µM (inactive) throughout. Moreover, the IC50 in assay [9] is > 32 µM (inactive); in [10], 7.68 µM (active); in [12] it was > 32 µM (inactive); in assay [14], > 32 µM (inactive).

Turning to `COc1cc(/C=C2/S/C(=N\c3cccc(Br)c3)NC2=O)ccc1OCC(=O)O`, the IC50 in [15] is > 100 µM (inactive); in [16], 68.8 µM (active); in assay [17] it was 7.86 µM (active); in assay [18], 1.57 µM (active); in assay [19], > 100 µM (inactive); in [20], 32 µM (active). Also, the IC50 in [21] is 7.44 µM (active).

Take `Cc1cc(N/N=C/c2ccc(O)cc2)nc(NS(=O)(=O)c2ccccc2)n1`: the results for the IC50 in assay [22] and in assay [23] were 72.6 µM (active) and 21.9 µM (active), respectively.
